The numbers were not newly measured in patent US6683112B2, “Gabapentin prodrugs and formulations” (Andrx Corporation, priority 2000, dated 2004), which cites them from elsewhere.

The structures appear in SMILES notation.

For data set [1] the following is noted: in water and in both basic and acidic conditions.

In the case of `NCC1(CC(=O)O)CCCCC1` [Gabapentin, 1-(aminomethyl)cyclohexaneacetic acid], under “in humans”, the metabolism entry is recorded as “not extensively metabolized” and the route of elimination entry is recorded as “eliminated via renal excretion essentially unchanged”. Besides, the oral bioavailability entry (typical dosage range 300-600 mgs T.I.D.) is reported as “approximately sixty”. Under “unaltered by dose or following multiple dosing”, the elimination half life entry is “five to seven”. Also, the solubility result in data set [1] was “highly soluble”.
